Assays:
[1] = tested on: Smn protein in SMA patient fibroblast cells (GM03813); assay: Smn protein assay in cultured cells (SMN HTRF); format: cell-based, human; conditions: SMA patient fibroblast cells, 48 hours; for EC1.5x for Smn protein expression: 7-point concentration curve, SMN HTRF, concentration producing 1.5 times Smn protein vs DMSO vehicle control; for maximum fold (Fold) increase of Smn protein: 7-point concentration data, fold relative to vehicle control
Procedure, shortened: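 Smn protein abundance in treated SMA fibroblasts was measured by HTRF after 48 h compound exposure. The reported EC1.5× is the concentration producing 1.5 times vehicle Smn levels.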

[2] = tested on: SMN2 minigene mRNA (SMN2-A minigene) in HEK293H cells; assay: SMN2 minigene mRNA splicing RT-qPCR assay in cultured cells; format: cell-based, human; conditions: Homo sapiens, HEK293-H; concentration increasing full length SMN2 mRNA 1.5-fold relative to vehicle-treated cells; HEK293H cells with SMN2-A minigene, 24 hours, 7-point concentration data; read-out: EC1.5x for production of full length SMN2 mRNA
Procedure, shortened: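 Potency reflects the concentration that lifts full-length SMN2 minigene mRNA 1.5-fold above vehicle in stably transfected HEK293H cells after 24 h of treatment. Transcript abundance came from RT-qPCR as (1+E)^−Ct, normalized to GAPDH; endogenous SMN1/SMN2 are not detected.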

| Compound | EC1.5x for Smn protein expression [1] | maximum fold (Fold) increase of Smn protein [1] | EC (1.5-fold increase) [2] [µM] | melting point [°C] |
| --- | --- | --- | --- | --- |
| CCc1cc(-c2cc(=O)n3cc(N4CCN(C5CCC5)[C@H](C)C4)ccc3n2)cn2cc(C)nc12 [Compound 650, 7-[(3R)-4-cyclobutyl-3-methylpiperazin-1-yl]-2-(8-ethyl-2-methylimidazo[1,2-a]pyridin-6-yl)-4H-pyrido[1,2-a]pyrimidin-4-one] | **** (an EC1.5x≤0.3 μM is indicated by four stars (****)) | ***** (a fold increase >1.65 is indicated by five stars (*****)) | < 0.1 | 209 to 212 |
| CCc1cc(-c2cc(=O)n3cc(N4CCN(CCO)[C@@H](C)C4)ccc3n2)cn2cc(C)nc12 [Compound 651, 2-(8-ethyl-2-methylimidazo[1,2-a]pyridin-6-yl)-7-[(3S)-4-(2-hydroxyethyl)-3-methylpiperazin-1-yl]-4H-pyrido[1,2-a]pyrimidin-4-one] | **** (an EC1.5x≤0.3 μM is indicated by four stars (****)) | ***** (a fold increase >1.65 is indicated by five stars (*****)) | < 0.1 | 220 to 223 |
| CCc1nc(C)cn2nc(-c3cc(=O)n4cc(C5CCN(C)CC5)ncc4n3)cc12 [Compound 654, 2-(4-ethyl-6-methylpyrazolo[1,5-a]pyrazin-2-yl)-7-(1-methylpiperidin-4-yl)-4H-pyrazino[1,2-a]pyrimidin-4-one] | **** (an EC1.5x≤0.3 μM is indicated by four stars (****)) | ***** (a fold increase >1.65 is indicated by five stars (*****)) | < 0.1 | 261 to 263 |
| CCc1nc(C)cn2nc(-c3cc(=O)n4cc(C5CCN(CC)CC5)ncc4n3)cc12 [Compound 655, 2-(4-ethyl-6-methylpyrazolo[1,5-a]pyrazin-2-yl)-7-(1-ethylpiperidin-4-yl)-4H-pyrazino[1,2-a]pyrimidin-4-one] | **** (an EC1.5x≤0.3 μM is indicated by four stars (****)) | **** (a fold increase between >1.5 and ≤1.65 is indicated by four stars (****)) | < 0.1 | 273 to 275 |
| CCc1nc(C)cn2nc(-c3cc(=O)n4cc(C5CCNCC5)ccc4n3)cc12 [Compound 656, 2-(4-ethyl-6-methylpyrazolo[1,5-a]pyrazin-2-yl)-7-(piperidin-4-yl)-4H-pyrido[1,2-a]pyrimidin-4-one] | **** (an EC1.5x≤0.3 μM is indicated by four stars (****)) | **** (a fold increase between >1.5 and ≤1.65 is indicated by four stars (****)) | < 0.1 | 236 to 238 |
| CCc1nc(C)cn2nc(-c3cc(=O)n4cc(C5CCN(C)CC5)ccc4n3)cc12 [Compound 657, 2-(4-ethyl-6-methylpyrazolo[1,5-a]pyrazin-2-yl)-7-(1-methylpiperidin-4-yl)-4H-pyrido[1,2-a]pyrimidin-4-one] | **** (an EC1.5x≤0.3 μM is indicated by four stars (****)) | ***** (a fold increase >1.65 is indicated by five stars (*****)) | < 0.1 | 190 to 192 |
| CCc1nc(C)cn2nc(-c3cc(=O)n4cc(C5CCN(CC)CC5)ccc4n3)cc12 [Compound 658, 2-(4-ethyl-6-methylpyrazolo[1,5-a]pyrazin-2-yl)-7-(1-ethylpiperidin-4-yl)-4H-pyrido[1,2-a]pyrimidin-4-one] | **** (an EC1.5x≤0.3 μM is indicated by four stars (****)) | ***** (a fold increase >1.65 is indicated by five stars (*****)) | < 0.1 | 194 to 196 |
| CCc1nc(C)cn2nc(-c3cc(=O)n4cc(C5CCN(CCO)CC5)ccc4n3)cc12 [Compound 659, 2-(4-ethyl-6-methylpyrazolo[1,5-a]pyrazin-2-yl)-7-[1-(2-hydroxyethyl)piperidin-4-yl]-4H-pyrido[1,2-a]pyrimidin-4-one] | **** (an EC1.5x≤0.3 μM is indicated by four stars (****)) | ***** (a fold increase >1.65 is indicated by five stars (*****)) | < 0.1 | 207 to 209 |
| CCCN1CCC(c2ccc3nc(-c4cc5c(CC)nc(C)cn5n4)cc(=O)n3c2)CC1 [Compound 660, 2-(4-ethyl-6-methylpyrazolo[1,5-a]pyrazin-2-yl)-7-(1-propylpiperidin-4-yl)-4H-pyrido[1,2-a]pyrimidin-4-one] | **** (an EC1.5x≤0.3 μM is indicated by four stars (****)) | **** (a fold increase between >1.5 and ≤1.65 is indicated by four stars (****)) | < 0.1 | 203 to 204 |
| CCc1nc(C)cn2nc(-c3cc(=O)n4cc(N5CCN[C@H](C)C5)ccc4n3)cc12 [Compound 661, 2-(4-ethyl-6-methylpyrazolo[1,5-a]pyrazin-2-yl)-7-[(3R)-3-methylpiperazin-1-yl]-4H-pyrido[1,2-a]pyrimidin-4-one] | **** (an EC1.5x≤0.3 μM is indicated by four stars (****)) | ***** (a fold increase >1.65 is indicated by five stars (*****)) | < 0.1 | 185 to 188 |
| Cc1cn2nc(-c3cc(=O)n4cc(C5CCN(CCCF)CC5)ccc4n3)cc2c(C)n1 [Compound 663, 2-(4,6-dimethylpyrazolo[1,5-a]pyrazin-2-yl)-7-[1-(3-fluoropropyl)piperidin-4-yl]-4H-pyrido[1,2-a]pyrimidin-4-one] | **** (an EC1.5x≤0.3 μM is indicated by four stars (****)) | ***** (a fold increase >1.65 is indicated by five stars (*****)) | < 0.1 | 186 to 188 |
| CCc1nc(C)cn2nc(-c3cc(=O)n4cc(N5CCN(CCF)CC5)ccc4n3)cc12 [Compound 664, 2-(4-ethyl-6-methylpyrazolo[1,5-a]pyrazin-2-yl)-7-[4-(2-fluoroethyl)piperazin-1-yl]-4H-pyrido[1,2-a]pyrimidin-4-one] | *** (an EC1.5× between >0.3 μM and ≤1 μM is indicated by three stars (***)) | ***** (a fold increase >1.65 is indicated by five stars (*****)) | 0.3 to 1 | 245 to 247 |
| CCc1nc(C)cn2nc(-c3cc(=O)n4cc(N5CCN(CCCF)CC5)ccc4n3)cc12 [Compound 665, 2-(4-ethyl-6-methylpyrazolo[1,5-a]pyrazin-2-yl)-7-[4-(3-fluoropropyl)piperazin-1-yl]-4H-pyrido[1,2-a]pyrimidin-4-one] | **** (an EC1.5x≤0.3 μM is indicated by four stars (****)) | ***** (a fold increase >1.65 is indicated by five stars (*****)) | 0.1 to 0.3 | 240 to 242 |
| CCc1nc(C)cn2nc(-c3cc(=O)n4cc(N5CCN(CCF)[C@H](C)C5)ccc4n3)cc12 [Compound 666, 2-(4-ethyl-6-methylpyrazolo[1,5-a]pyrazin-2-yl)-7-[(3R)-4-(2-fluoroethyl)-3-methylpiperazin-1-yl]-4H-pyrido[1,2-a]pyrimidin-4-one] | *** (an EC1.5× between >0.3 μM and ≤1 μM is indicated by three stars (***)) | ***** (a fold increase >1.65 is indicated by five stars (*****)) | 0.1 to 0.3 | 255 to 257 |
| CCc1nc(C)cn2nc(-c3cc(=O)n4cc(N5CCN(CCCF)[C@H](C)C5)ccc4n3)cc12 [Compound 667, 2-(4-ethyl-6-methylpyrazolo[1,5-a]pyrazin-2-yl)-7-[(3R)-4-(3-fluoropropyl)-3-methylpiperazin-1-yl]-4H-pyrido[1,2-a]pyrimidin-4-one] | **** (an EC1.5x≤0.3 μM is indicated by four stars (****)) | ***** (a fold increase >1.65 is indicated by five stars (*****)) | < 0.1 | 244 to 246 |
| CCc1nc(C)cn2nc(-c3cc(=O)n4cc(C5CCN(CCF)CC5)ccc4n3)cc12 [Compound 668, 2-(4-ethyl-6-methylpyrazolo[1,5-a]pyrazin-2-yl)-7-[1-(2-fluoroethyl)piperidin-4-yl]-4H-pyrido[1,2-a]pyrimidin-4-one] | **** (an EC1.5x≤0.3 μM is indicated by four stars (****)) | ***** (a fold increase >1.65 is indicated by five stars (*****)) | < 0.1 | 206 to 208 |
| CCc1nc(C)cn2nc(-c3cc(=O)n4cc(C5CCN(CCCF)CC5)ccc4n3)cc12 [Compound 669, 2-(4-ethyl-6-methylpyrazolo[1,5-a]pyrazin-2-yl)-7-[1-(3-fluoropropyl)piperidin-4-yl]-4H-pyrido[1,2-a]pyrimidin-4-one] | **** (an EC1.5x≤0.3 μM is indicated by four stars (****)) | ***** (a fold increase >1.65 is indicated by five stars (*****)) | < 0.1 | 216 to 218 |
